US10106529B2, “Compounds that modulate intracellular calcium” (CalciMedica, Inc., priority 2011, dated 2018)

Columns and labels:
Orai1/STIM1 = biological target: T1, Orai1/STIM1 (Homo sapiens, UniProt Q96D31); assay: Fluorescence-based assay of store-operated calcium entry in Orai1/STIM1 stable cells; type: cell-based; design: key to Orai1/STIM1 (IC50, μmol): A, IC50 < 0.6 μM; B, IC50 = 0.6-1.2 μM; C, IC50 > 1.2 μM; — no fit; settings: HEK-293 cells stably expressing human STIM1 and Orai1, inhibition of Peak-Basal fluorescence signal after calcium addition; for IC50: read-out: Orai1/STIM1 (IC50, μmol)
T1 construct: c-myc (C); expressed in transfected cells; host or cells: HEK-293 cells stably expressing recombinant human STIM1 and Orai1
Description: (§1) Fluorescence-based assays are used for screening the compounds described herein, such as compounds of Formulas (I), (IA), (II), (IIA), (III), (IIIA), (IV), (IVA), (V), (VA), (VI), (VIA), (VII), (VIIA), (VIII), (VIIIA), (IX), (IXA), (X), (XI), (XIA), (XII), or (XIIA) which modulate intracellular calcium.
A. Fluorescence-Based Assay of Store-Operated Calcium Entry in Orai1/STIM1 Stable Cells.
Cells stably expressing recombinant human STIM1 and Orai1 are generated by transfecting a human Orai1 expression plasmid (pcDNA3.1-Orai1-cmyc) into HEK-293 cells stably overexpressing human STIM1 (Roos et al. 2005 JCB 169(3): 435-445). Colonies of cells stably expressing both STIM1 and Orai1 proteins are selected and then subcloned by limiting dilution. Cells were cultured at 37° C./6% CO2 in complete medium with 10% FBS and appropriate selection markers.
The day prior to performing the assay Orai1/STIM1 stable cells are plated in 50 μL of complete medium at 90-95% confluence in a 384 well plate. Cells are grown at 37° C./6% CO2 overnight. On the day of the assay, 1.5 μM fluo-4-AM (Invitrogen) in complete medium is added to the cells, which are then incubated for 1 hour at RT. Cells are washed once in Ca^2+-free HBSS (Hank's buffered saline solution) and 35 μl of Ca^2+-free HBSS is added to each well. Test compounds are added to wells in a 10 μL Ca^2+-free HBSS solution, prepared at 4.5× the desired final concentration, and incubated for 30 minutes at RT. The initial baseline fluorescence signal is then measured with a FLIPR^384 (Molecular Devices) plate reader. Calcium entry is initiated by adding 5 μl of 10×CaCl2 (10 mM) in HBSS, and changes in cellular fluorescence are measured with the FLIPR^384 plate reader. In each well, the magnitude of the fluorescence signal as a result of calcium entry into the cell is determined by calculating the difference between the peak fluorescence signal measured after calcium addition and the initial baseline fluorescence signal (designated Peak-Basal). IC50 values are typically calculated as the concentration that inhibited 50% of the Peak-Basal signal.

RBL-2H3 cells = assay: Fluorescence-based assay of store-operated calcium entry in RBL-2H3 cells; type: cell-based, rat; settings: Rattus norvegicus, thapsigargin, inhibition of Upslope of fluorescence after calcium addition, read-out: RBL-2H3 (IC50, μmol)
Experimental: as §1
B. Fluorescence-Based Assay of Store-Operated Calcium Entry in RBL-2H3 Cells.
RBL-2H3 cells are obtained from ATCC and maintained in complete medium with 10% FBS at 37° C./6% CO2.
The day prior to performing the assay, RBL-2H3 cells are plated in 50 μL of complete medium in a 384 well plate. Cells are grown at 37° C./6% CO2 overnight and grow to 50-60% confluence by the next day. On the assay day, 1.5 µM Fluo-4-AM dye (Invitrogen) in complete medium is added and incubated for 1 hour at RT. Cells are washed twice in Ca^2+-free HBSS buffer and 35 μL Ca^2+-free HBSS buffer is added to each well. 10 μL of a test compound prepared in a Ca^2+-free HBSS solution at 4.5× of the desired concentration is added to a well and incubated for 5 minutes at RT. 10 μL of thapsigargin prepared in a Ca^2+-free HBSS solution at 5.5× of the desired concentration (5.5 uM) is added to each well and incubated for an additional 25 minutes. The initial baseline fluorescence signal is measured with a FLIPR^384 (Molecular Devices) plate reader. 5 μL of 12× calcium in HBSS (12 mM) is added and changes in cellular fluorescence are measured with the FLIPR^384 plate reader. In each well, the change in the fluorescent signal as a function of time due to calcium entry into the cell is determined by calculating the difference between the fluorescent signal measured 7 seconds after calcium addition and the initial baseline fluorescence signal at time zero (t=0). This parameter is designated Upslope. The IC50 value is calculated as the concentration at which 50% of the Upslope is inhibited.

T1 sequence (Q96D31 whole entry): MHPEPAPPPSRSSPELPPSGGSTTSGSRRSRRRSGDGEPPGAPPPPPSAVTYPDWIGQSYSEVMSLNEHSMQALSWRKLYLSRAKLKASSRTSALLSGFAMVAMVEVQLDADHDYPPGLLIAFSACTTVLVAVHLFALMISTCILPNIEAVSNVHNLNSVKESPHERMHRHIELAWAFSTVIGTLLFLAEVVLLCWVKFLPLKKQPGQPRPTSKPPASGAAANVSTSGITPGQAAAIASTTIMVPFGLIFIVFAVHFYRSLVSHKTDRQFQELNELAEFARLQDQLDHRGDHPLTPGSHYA

| IC50 (Orai1/STIM1) [nM] | IC50 (RBL-2H3 cells) [nM] | Orai1/STIM1 (IC50, μmol) (Orai1/STIM1) | Structure (SMILES) |
| --- | --- | --- | --- |
| < 600 | < 600 |  | Fc1cccc(F)c1CNc1ccc(Oc2ccccc2C(F)(F)F)cn1 [Compound 135] |
|  | 600 to 1200 | — | Cc1c(F)cccc1CNc1ccc(-n2cc(C(F)(F)F)nc2C)cn1 [Compound 112, N-(3-fluoro-2-methylbenzyl)-5-(2-methyl-4-(trifluoromethyl)-1H-imidazol-1-yl)pyridin-2-amine] |
| 600 to 1200 | < 600 |  | Cc1cc2c(cc1-c1ccc(NCc3c(F)cccc3F)nc1)OCCO2 [Compound 37, N-(2,6-difluorobenzyl)-5-(7-methyl-2,3-dihydrobenzo[b][1,4]dioxin-6-yl)pyridin-2-amine] |
